# Data taken from patent US8334266B2, “Process for and intermediates in the preparation of canfosfamide and its salts” (Telik, Inc., priority 2004, dated 2012).
# pIC50: −log10 of the molar value. Counter-ions that a name gives are not always drawn.
# Columns and labels:
# [1] = test system: HL-60 (promyeloid myelocytic leukemia)
# Procedure: (§1) The human cancer cell lines HL-60 (promyeloid myelocytic leukemia) and MX-1 (breast carcinoma) were obtained from the National Cancer Institute, Bethesda, Md., U.S.A. The CellTiter-Glo assay kit was obtained from Promega Corporation, Madison, Wis., U.S.A, and was used in accordance with the manufacturer's directions. All assays were conducted in triplicate wells, with dimethyl sulfoxide (DMSO) solvent control. The extent of cell growth was expressed as a percentage of the signal from the solvent control wells.
# (§2) Log-phase cells were trypsinized, collected by centrifugation, and resuspended in a small volume of fresh medium, and the density of viable cells was determined following Trypan Blue staining. Cells were diluted in fresh media (5×10^3 cells/mL for HL-60 and 3×10^3 cells/mL for MX-1 cells), Compound 4A (concentrations between 0.1 and 200 μM, dissolved in DMSO, 50 μL) added immediately after dilution to achieve a final DMSO concentration of 0.5%, then the suspensions added at 150 μL/well to 96-well plates, and incubated for several hours to allow attachment in the case of adherent cells. The cells were cultured for approximately three doubling times (3 days). The cells were then collected by centrifugation, and 100 μL of the culture supernatant was replaced by the CellTiter-Glo reagent. After incubation for 15 minutes at room temperature, and the plate was read with a luminometer.
# [2] = test system: MX-1 (breast carcinoma); details: MX-1, cultured 3 days, CellTiter-Glo
# Procedure: as §1, §2
# [3] = test system: M6709 human colon carcinoma cell line selected for resistance to doxorubicin; details: resistant line overexpresses GST P1-1; cited from earlier work
# [4] = test system: MCF-7 human breast carcinoma cell line selected for resistance to cyclophosphamide; details: resistant line overexpresses GST P1-1; cited from earlier work
# [5] = test system: M7609 engineered to have high, medium, and low levels of GST P1-1; details: murine xenografts; cited from earlier work
# [6] = test system: in vitro cell culture and tumor biopsies; details: cited from earlier work
# [7] = test system: ovarian, breast, non-small cell lung, and colorectal cancers; details: cited from earlier work
structure (smiles),measurement,setting,value
"O=C(CC[C@H](NC(=O)OCc1ccccc1)C(=O)O)N[C@@H](CS(=O)(=O)CCOP(=O)(N(CCCl)CCCl)N(CCCl)CCCl)C(=O)N[C@@H](C(=O)O)c1ccccc1 [Compound 4A, N-α-(benzyloxycarbonyl)-L-γ-glutamyl-3-[[2-[[bis[bis(2-chloroethyl)amino]phosphinyl]oxy]-ethyl]sulfonyl]-L-alanyl-2-phenyl-(2R)-glycine]",pIC50,"[1]; HL-60, cultured 3 days, CellTiter-Glo",5.66
same,potency compared with canfosfamide,[1]; in this assay (HL-60 and MX-1 cell lines),approximately as potent as canfosfamide
same,pIC50,[2],4.46
"N[C@@H](CCC(=O)N[C@@H](CS(=O)(=O)CCOP(=O)(N(CCCl)CCCl)N(CCCl)CCCl)C(=O)N[C@@H](C(=O)O)c1ccccc1)C(=O)O [canfosfamide, L-γ-glutamyl-3-[[2-[[bis[bis(2-chloroethyl)amino]phosphinyl]oxy]ethyl]sulfonyl]-L-alanyl-2-phenyl-(2R)-glycine]",potency relative to parental cell line,[3],more potent
same,potency relative to parental cell line,[4],more potent
same,potency in relation to GST P1-1 level,[5],positively correlated with the level of GST P1-1
same,"cross-resistance to platinum, paclitaxel, doxorubicin and gemcitabine",[6],non-cross-resistant
N[C@@H](CCC(=O)N[C@@H](CS(=O)(=O)CCOP(=O)(N(CCCl)CCCl)N(CCCl)CCCl)C(=O)N[C@@H](C(=O)O)c1ccccc1)C(=O)O [Canfosfamide hydrochloride],hematological toxicity,[7]; patients treated,very low incidence of clinically significant hematological toxicity
same,antitumor activity,"[7]; single agent, colorectal and breast cancer",single agent antitumor activity
same,antitumor activity and survival,"[7]; single agent, patients with non-small cell lung cancer and ovarian cancer",significant single agent antitumor activity and improvement in survival
